# Results as given in patent US11767322B2 (BRISTOL-MYERS SQUIBB COMPANY, priority 2020, dated 2023).
# Like-named read-outs stand apart in the source and are kept apart here.
# Legend:
# [1] = biological target: T1, His-GST-TVMV-hRIPK1(1-324) (Homo sapiens, UniProt Q13546); assay: biochemical; type: binding; conditions: read-out: RIPK1 IC50
# T1 construct: The coding region of human RIPK1(1-324) flanked by NdeI site at 5′ end; made in house; host or cells: Spodoptera frugiperda Sf9 insect cells (baculovirus, Bac-to-Bac)
# T1 sequence (Q13546 1-324): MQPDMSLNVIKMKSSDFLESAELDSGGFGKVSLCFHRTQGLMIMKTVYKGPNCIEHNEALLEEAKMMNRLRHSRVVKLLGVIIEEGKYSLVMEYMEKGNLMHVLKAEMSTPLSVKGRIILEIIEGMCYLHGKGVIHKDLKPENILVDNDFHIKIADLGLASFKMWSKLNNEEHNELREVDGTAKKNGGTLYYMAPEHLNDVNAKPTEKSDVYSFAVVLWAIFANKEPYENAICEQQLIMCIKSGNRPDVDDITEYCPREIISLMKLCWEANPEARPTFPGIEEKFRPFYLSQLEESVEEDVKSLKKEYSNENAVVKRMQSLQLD
# [2] = system: MLKL phosphorylation in HT29-L23 human colorectal adenocarcinoma cells; assay: MLKL phosphorylation high-content assay; type: cell-based
# [3] = HTRF probe displacement, 1 h at rt
# [4] = Homo sapiens, 6 h, read-out: pMLKL IC50, HT29-L23 cells, necroptosis induced with TNFα, SMAC mimetic and Z-VAD, 6 h, maximal inhibition defined by Nec1s
# [5] = read-out: pMLKL IC50, HT29-L23 cells, necroptosis induced with TNFα, SMAC mimetic and Z-VAD, 6 h, maximal inhibition defined by Nec1s
Compound,"IC50 [1, 3] [nM]","IC50 [2, 4] [nM]","IC50 [2, 5] [nM]",further results
"Cc1ccc(-c2ccn3nc(N)nc3c2)c(F)c1C(=O)NCC(F)(F)C(O)(c1ccc(F)cc1)C(F)F (centres unmarked) [Example 274, 3-(2-amino-[1,2,4]triazolo[1,5-a]pyridin-7-yl)-2-fluoro-6-methyl-N-(2,2,4,4-tetrafluoro-3-(4-fluorophenyl)-3-hydroxybutyl)benzamide]",19,0.7,–,–
"(R)-3-(2-amino-[1,2,4]triazolo[1,5-a]pyridin-7-yl)-6-cyclopropyl-N-(2,2-difluoro-3-(4-fluorophenyl)-3-hydroxypropyl)-2-fluorobenzamide [Example 305]",1.6,–,–,"IC50 ([2]; HT29-L23 cells, necroptosis induced with TNFα, SMAC mimetic and Z-VAD, 6 h, maximal inhibition defined by Nec1s, read-out: pMLKL IC50): 0.6 nM"
"Nc1nc2cc(-c3ccc(Cl)c(C(=O)NCC(F)(F)C(O)c4cccc(F)c4)c3F)ccn2n1 (single isomer, unassigned) [Example 169, 3-{2-amino-[1,2,4]triazolo[1,5-a]pyridin-7-yl}-6-chloro-N-[2,2-difluoro-3-(3-fluorophenyl)-3-hydroxypropyl]-2-fluorobenzamide]",0.9,–,28,–
"Nc1nc2cc(-c3ccc(Cl)c(C(=O)NCC(O)C(F)(F)c4ccc(F)cc4)c3F)ccn2n1 (single isomer, unassigned) [Example 292, 3-(2-amino-[1,2,4]triazolo[1,5-a]pyridin-7-yl)-6-chloro-N-(3,3-difluoro-3-(4-fluorophenyl)-2-hydroxypropyl)-2-fluorobenzamide]",2.4,1,–,–
"Cc1ccc(-c2ccn3nc(N)nc3c2)c(F)c1C(=O)NCCC(O)c1cccc(Cl)c1 (single isomer, unassigned) [Example 45, 3-(2-amino-[1,2,4]triazolo[1,5-a]pyridin-7-yl)-N-(3-(3-chlorophenyl)-3-hydroxypropyl)-2-fluoro-6-methylbenzamide]",3,–,7.4,–
"Cc1cc(F)c(-c2ccn3nc(N)nc3c2)cc1C(=O)NCC[C@H](O)c1ccc(Cl)cc1 [Example 1, (S)-5-(2-amino-[1,2,4]triazolo[1,5-a]pyridin-7-yl)-N-(3-(4-chlorophenyl)-3-hydroxypropyl)-4-fluoro-2-methylbenzamide]",1.2,1.3,–,–
"[2H]C([2H])([2H])c1ccc(-c2ccn3nc(N)nc3c2)c(F)c1C(=O)NCC(F)(F)C(O)(c1ccc(F)cc1)C([2H])([2H])[2H] (single isomer, unassigned) [Example 243, 3-(2-amino-[1,2,4]triazolo[1,5-a]pyridin-7-yl)-N-(2,2-difluoro-3-(4-fluorophenyl)-3-hydroxybutyl-4,4,4-d3)-2-fluoro-6-(methyl-d3)benzamide]",4.7,1.2,–,–
Cc1nc(C)c(-c2ccn3nc(N)nc3c2)cc1C(=O)NCC(O)Cc1ccccc1 (centres unmarked) [Example 174],–,–,–,"IC50 ([1]; Table 23, representative compounds from WO2018/148626): 48 nM; IC50 ([2]; Homo sapiens, Table 23, representative compounds from WO2018/148626, read-out: pMLKL IC50): 205 nM"
"[2H]C([2H])([2H])c1ccc(C(O)C(F)(F)CNC(=O)c2c(C([2H])([2H])[2H])ccc(-c3ccn4nc(N)nc4c3)c2F)cc1 (single isomer, unassigned) [Example 201, 3-(2-amino-[1,2,4]triazolo[1,5-a]pyridin-7-yl)-N-(2,2-difluoro-3-hydroxy-3-(4-(methyl-d3)phenyl)propyl)-2-fluoro-6-(methyl-d3)benzamide]",6.7,–,0.9,–
"[2H]C([2H])([2H])c1ccc(C(O)C(F)(F)CNC(=O)c2c(C([2H])([2H])[2H])ccc(-c3ccn4nc(N)nc4c3)c2F)cc1 (single isomer, unassigned) [Example 200, 3-(2-amino-[1,2,4]triazolo[1,5-a]pyridin-7-yl)-N-(2,2-difluoro-3-hydroxy-3-(4-(methyl-d3)phenyl)propyl)-2-fluoro-6-(methyl-d3)benzamide]",4.7,0.8,–,–
